According to patent US11147272B2, “Pyridone compounds and agricultural and horticultural fungicides comprising the same as active ingredients” (MITSUI CHEMICALS AGRO, INC., priority 2017, dated 2021):

Key:
Plasmopara viticola = assay: Test Example G: Downy mildew on vine; details: Downy mildew on vine (Neomuscat); 250 ppm spray, 2.5 ml/pot; assessed 7 to 10 days after inoculation
[1] = test system: Colletotrichum orbiculare; assay: Test Example H: Anthracnose on cucumber; details: Anthracnose on cucumber (Sagami Hanjiro); 250 ppm spray, 2.5 ml/pot; assessed 6 to 10 days after inoculation
Botrytis cinerea = assay: Test Example B: Gray mold on tomato; details: Gray mold on tomato; class of control value
Protocol: Seeds of a test plant (tomato variety: Oogata Fukuju) were planted and cultivated until three to five first leaves (true leaves) appeared. In the test, the inventive compounds were dissolved into dimethyl sulfoxide-methanol mixture solution (volume ratio: 9/1), and the resultant solutions were diluted with well water to a concentration of 250 ppm to obtain the drug solutions. The drug solutions were sprayed to the test plant (2.5 ml/pot). After the drug solutions dried, a conidial suspension (4-8×10^5 conidia/ml) of Botrytis cinerea was inoculated to the plant by spraying. After the inoculation, the plant was kept in a mist chamber at room temperature of 20 to 23° C. for about 48 hours to promote the onset of disease. The degrees of disease development were investigated 2 to 3 days after the inoculation, and the effectiveness of the drug solutions was evaluated.
In Test Examples described above, the degrees of disease development were evaluated in increments of 0.05 from 0 (as no incidence of disease) to 3 (as the degree of disease development in an untreated plant group). Further, control values were calculated using the following equation based on the degree of disease development.
n=Degree of disease development in each treated group
In the table, H: more than 50% control value, L: 50% or less control value, and nt: not tested.

Puccinia recondita = assay: Test Example E: Brown rust on wheat; format: in vivo; details: Brown rust on wheat; class of control value
Alternaia brassicicola = assay: Test Example C: Alternaria sooty spot on cabbage; format: in vivo; details: Alternaria sooty spot on cabbage; class of control value
From the text: Seeds of a test plant (cabbage variety: Shikidori) were planted and cultivated until the cotyledons extended.
<Control Value> Control value=100{1−(n/3)}

[2] = test system: Blumeria graminis f. sp. hordei; assay: Test Example D: Powdery mildew on barley; details: Powdery mildew on barley; class of control value
Magnaporthe grisea = assay: whole plant or invertebrate; format: in vivo; details: Blast on rice; class of control value
Phytophthora infestans = assay: whole plant or invertebrate; format: in vivo; details: Late blight on tomato; class of control value

SMILES	Test G control value class (Plasmopara viticola)	Test H control value class [1]	Test B control value class (Botrytis cinerea)	Test E control value class (Puccinia recondita)	Test C control value class (Alternaia brassicicola)	Test D control value class [2]	Test A control value class (Magnaporthe grisea)	Test F control value class (Phytophthora infestans)
CCn1c(-c2c(F)cc(OC)cc2F)c(CNOC)cc(Cl)c1=O [compound 114]	L (50% or less control value)	H (more than 50% control value)	H (more than 50% control value)	H (more than 50% control value)	H (more than 50% control value)	H (more than 50% control value)	L (50% or less control value)	L (50% or less control value)
CCn1c(-c2ccc(OC)cc2F)c(CC(C)C)cc(Cl)c1=O [compound 115]	L (50% or less control value)	H (more than 50% control value)	H (more than 50% control value)	H (more than 50% control value)	H (more than 50% control value)	H (more than 50% control value)	H (more than 50% control value)	L (50% or less control value)
CCn1c(-c2ccc(OC)cc2F)c(CC(C)C)cc(Br)c1=O [compound 116]	H (more than 50% control value)	H (more than 50% control value)	H (more than 50% control value)	H (more than 50% control value)	H (more than 50% control value)	H (more than 50% control value)	H (more than 50% control value)	L (50% or less control value)
CCn1c(-c2ccc(F)cc2F)c(CC(C)C)ccc1=O [compound 117]	L (50% or less control value)	H (more than 50% control value)	H (more than 50% control value)	H (more than 50% control value)	H (more than 50% control value)	H (more than 50% control value)	H (more than 50% control value)	L (50% or less control value)
CCn1c(-c2ccc(O)cc2F)c(CC(C)C)cc(Cl)c1=O [compound 118]	L (50% or less control value)	L (50% or less control value)	H (more than 50% control value)	H (more than 50% control value)	H (more than 50% control value)	L (50% or less control value)	L (50% or less control value)	L (50% or less control value)
CCn1c(-c2ccc(F)cc2F)c(CC(C)C)cc(Cl)c1=O [compound 119]	H (more than 50% control value)	H (more than 50% control value)	H (more than 50% control value)	H (more than 50% control value)	H (more than 50% control value)	H (more than 50% control value)	H (more than 50% control value)	L (50% or less control value)
CCn1c(-c2ccc(F)cc2F)c(CC(C)C)cc(Br)c1=O [compound 120]	L (50% or less control value)	H (more than 50% control value)	H (more than 50% control value)	H (more than 50% control value)	H (more than 50% control value)	H (more than 50% control value)	H (more than 50% control value)	L (50% or less control value)
CCn1c(-c2ccc(OCCOC)cc2F)c(CC(C)C)cc(Cl)c1=O [compound 121]	L (50% or less control value)	H (more than 50% control value)	H (more than 50% control value)	H (more than 50% control value)	H (more than 50% control value)	H (more than 50% control value)	H (more than 50% control value)	L (50% or less control value)
CCn1c(-c2ccc(OCOC)cc2F)c(CC(C)C)cc(Cl)c1=O [compound 122]	H (more than 50% control value)	H (more than 50% control value)	H (more than 50% control value)	H (more than 50% control value)	H (more than 50% control value)	H (more than 50% control value)	H (more than 50% control value)	L (50% or less control value)
CCOc1ccc(-c2c(CC(C)C)cc(Cl)c(=O)n2CC)c(F)c1 [compound 123]	H (more than 50% control value)	H (more than 50% control value)	H (more than 50% control value)	H (more than 50% control value)	H (more than 50% control value)	H (more than 50% control value)	H (more than 50% control value)	L (50% or less control value)
C=CCOc1ccc(-c2c(CC(C)C)cc(Cl)c(=O)n2CC)c(F)c1 [compound 124]	L (50% or less control value)	H (more than 50% control value)	H (more than 50% control value)	H (more than 50% control value)	H (more than 50% control value)	H (more than 50% control value)	H (more than 50% control value)	L (50% or less control value)
C#CCOc1ccc(-c2c(CC(C)C)cc(Cl)c(=O)n2CC)c(F)c1 [compound 125]	H (more than 50% control value)	H (more than 50% control value)	H (more than 50% control value)	H (more than 50% control value)	H (more than 50% control value)	H (more than 50% control value)	H (more than 50% control value)	L (50% or less control value)
CCCOc1ccc(-c2c(CC(C)C)cc(Cl)c(=O)n2CC)c(F)c1 [compound 126]	H (more than 50% control value)	H (more than 50% control value)	H (more than 50% control value)	H (more than 50% control value)	H (more than 50% control value)	H (more than 50% control value)	L (50% or less control value)	L (50% or less control value)
CCn1c(-c2ccc(OCC#N)cc2F)c(CC(C)C)cc(Cl)c1=O [compound 127]	H (more than 50% control value)	H (more than 50% control value)	H (more than 50% control value)	H (more than 50% control value)	H (more than 50% control value)	H (more than 50% control value)	L (50% or less control value)	L (50% or less control value)
CCn1c(-c2ccc(OCSC)cc2F)c(CC(C)C)cc(Cl)c1=O [compound 128]	H (more than 50% control value)	H (more than 50% control value)	H (more than 50% control value)	H (more than 50% control value)	H (more than 50% control value)	H (more than 50% control value)	H (more than 50% control value)	L (50% or less control value)
CCn1c(-c2ccc(OCC3CC3)cc2F)c(CC(C)C)cc(Cl)c1=O [compound 129]	H (more than 50% control value)	L (50% or less control value)	H (more than 50% control value)	H (more than 50% control value)	H (more than 50% control value)	H (more than 50% control value)	L (50% or less control value)	L (50% or less control value)
